In paper PMC10974533, “Cationicity Enhancement on the Hydrophilic Face of Ctriporin Significantly Reduces Its Hemolytic Activity and Improves the Antimicrobial Activity against Antibiotic-Resistant ESKAPE Pathogens” (Toxins, 2024):
Where a SMILES comes first, the peptide text is derived from it.

Columns and labels:
Type in all cases: cell-based
A. baumannii ATCC19606 = assay: MIC, broth dilution, standard strain; conditions: broth dilution (CLSI), MHB, 37 °C, 16–20 h
Protocol: (§1) The standard strains, including S. aureus ATCC29213 and ATCC25923, E. faecalis ATCC29212, E. coli ATCC25922 and ATCC35218, A. baumannii ATCC19606, K. pneumoniae ATCC700603, and P. aeruginosa ATCC27853, were purchased from the China Center of Type Culture Collection (CCTCC). The clinical strains of the ESKAPE pathogens were isolated from the affiliated hospitals of Hubei University of Medicine. All of them were stored at −80 °C before use. The drug sensitivities of the clinical strains were determined by the Kirby–Bauer test.
(§2) The MICs were determined using the broth dilution method according to the guidelines of the Clinical and Laboratory Standards Institute (CLSI), as described in the previous studies. Briefly, the bacterial cells were incubated in Mueller–Hinton broth (MHB, Oxoid, Basingstoke, UK) at 37 °C and 150 rpm to the mid-growth phase and diluted to achieve a final concentration of 5 × 10^5 colony-forming units per milliliter (CFU/mL). Then, the cells were mixed with each peptide in different concentrations (1, 2, 4, 8, 16, 32, and 64 μg/mL). […] All experiments were repeated at least three times.

K. pneumoniae ATCC700603 = assay: MIC, broth dilution, standard strain; conditions: broth dilution (CLSI), MHB, 37 °C, 16–20 h
Protocol: as §1, §2

P. aeruginosa ATCC27853 = assay: MIC, broth dilution, standard strain; conditions: broth dilution (CLSI), MHB, 37 °C, 16–20 h
Protocol: as §1, §2

E. coli ATCC35218 = assay: MIC, broth dilution, standard strain; conditions: broth dilution (CLSI), MHB, 37 °C, 16–20 h
Protocol: as §1, §2

S. aureus ATCC29213 = assay: MIC, broth dilution, standard strain; conditions: broth dilution (CLSI), MHB, 37 °C, 16–20 h
Protocol: as §1, §2

E. faecium ATCC29212 = assay: MIC, broth dilution, standard strain; conditions: broth dilution (CLSI), MHB, 37 °C, 16–20 h
Protocol: as §1, §2

S. aureus ATCC25923 = assay: MIC, broth dilution, standard strain; conditions: broth dilution (CLSI), MHB, 37 °C, 16–20 h
Protocol: as §1, §2

E. coli ATCC25922 = assay: MIC, broth dilution, standard strain; conditions: broth dilution (CLSI), MHB, 37 °C, 16–20 h
Protocol: as §1, §2

[1] = tested on: human red blood cells (hRBC); assay: Hemolytic activity determination; conditions: 2% (v/v) hRBC, 37 °C, 1 h; for Hemolysis% at 256 μg/mL: 256 μg/mL peptide, OD540, 1% Triton X-100 = 100%, average ± standard error of three independent experiments; for curve of hemolysis% vs. peptide concentration (Figure 2): 0–512 μg/mL peptide, compared in words
Protocol: Figure 2 Hemolytic activities of Ctriporin and its analogs against human red blood cells (hRBC). Hemolytic activities of Ctriporin (solid circle), CM1 (open circle), CM2 (open square), CM3 (upward triangle), CM4 (downward triangle), CM5 (half solid circle), CM6 (half solid square), and CM7 (half solid triangle), were measured against 2% (v/v) human red blood cells. The peptide concentrations are 0, 2, 4, 8, 16, 32, 64, 128, 256, and 512 μg/mL. The cells treated with 1% Triton X-100 were treated as 100% hemolysis. All experiments were repeated three times, and the data shown are the average ± standard error.
The hemolytic activities of the peptides were determined against human red blood cells (hRBCs). As described, sodium citrate-anticoagulated hRBCs were washed three times with 0.9% sodium chloride and diluted to a final concentration of 4% (v/v). Then, an equal volume of hRBC solutions was mixed with an equal volume of each peptide in a series of concentrations (0, 2, 4, 8, 16, 32, 64, 128, 256, and 512 μg/mL). After co-incubation at 37 °C for 1 h, the degree of hemolysis of the peptides was determined by detecting the release of hemoglobin from the damaged hRBCs by measuring the optical density at 540 nm (OD540). hRBCs in 0.9% sodium chloride and 1% Triton X-100 were considered 0% and 100% hemolysis, respectively. The results shown are the average ± standard error of data derived from three independent experiments. The percent hemolysis was calculated according to the following equation [53, 54]:Hemolysis (%) = 100 × (Asample − Ablank)/(Apositive − Ablank)

standard ESKAPE strains = conditions: broth dilution (CLSI), MHB, 37 °C, 16–20 h; range over all standard strains
Protocol: The ESKAPE pathogens represent the main threat to public health concerning antimicrobial resistance. Therefore, we first evaluated the antimicrobial activities of Ctriporin and its analogs against the standard ESKAPE strains. The minimum inhibitory concentration (MIC) was chosen as the index for the evaluation of each peptide’s activity. […] Note that the MICs of CM4 and CM7 are 4–32 and 8–32 μg/mL, respectively, indicating the existence of significant bacterial species deviations for the antimicrobial activity of these peptides. In addition, the replacement of specific residues, especially Pro^7, may harm the antimicrobial activities of the peptide.
as §1, §2

[2] = 5 × 10^5 CFU/mL, OD630, repeated at least three times

SMILES	MICs (A. baumannii ATCC19606; [2])	MICs (A. baumannii ATCC19606; value in parentheses)	MICs (K. pneumoniae ATCC700603; [2])	MICs (K. pneumoniae ATCC700603; value in parentheses)	MICs (P. aeruginosa ATCC27853; [2])	MICs (P. aeruginosa ATCC27853; value in parentheses)	MICs (E. coli ATCC35218; [2])	MICs (E. coli ATCC35218; value in parentheses)	MICs (S. aureus ATCC29213; [2])	MICs (S. aureus ATCC29213; value in parentheses)	MICs (E. faecium ATCC29212; [2])	MICs (E. faecium ATCC29212; value in parentheses)	MICs (S. aureus ATCC25923; [2])	MICs (S. aureus ATCC25923; value in parentheses)	MICs (E. coli ATCC25922; [2])	Hemolysis% at 256 μg/mL [1]	MICs (E. coli ATCC25922; value in parentheses)	MICs against the ESKAPE pathogens (range over the standard strains of Table 2) (standard ESKAPE strains)	curve of hemolysis% vs. peptide concentration (Figure 2) [1]
CC[C@H](C)[C@H](NC(=O)[C@H](C)NC(=O)CNC(=O)[C@@H]1CCCN1C(=O)[C@@H](NC(=O)[C@H](CC(C)C)NC(=O)[C@H](CCCCN)NC(=O)[C@H](Cc1c[nH]c2ccccc12)NC(=O)[C@H](CC(C)C)NC(=O)[C@@H](N)Cc1ccccc1)[C@@H](C)CC)C(=O)N[C@@H](CO)C(=O)N[C@@H](C)C(=O)N[C@H](C(=O)N[C@H](C(=O)N[C@@H](CO)C(=O)N[C@@H](CC(C)C)C(=O)N[C@H](C(=O)N[C@@H](CCCCN)C(=O)N[C@@H](CCCCN)C(N)=O)[C@@H](C)CC)[C@@H](C)O)C(C)C [CM1] (H-FLWKLIPGAISAVTSLIKK-NH2; N-terminus assumed)	8 µg/mL	3.8 µM	64 µg/mL	30.7 µM	> 64 µg/mL	> 30.7 µM	32 µg/mL	15.4 µM	8 µg/mL	3.8 µM	16 µg/mL	7.7 µM	16 µg/mL	7.7 µM	8 µg/mL	75.6 ± 10.1%			
CC[C@H](C)[C@H](NC(=O)[C@H](C)NC(=O)[C@H](CCCCN)NC(=O)[C@@H]1CCCN1C(=O)[C@@H](NC(=O)[C@H](CC(C)C)NC(=O)[C@H](CCCCN)NC(=O)[C@H](Cc1c[nH]c2ccccc12)NC(=O)[C@H](CC(C)C)NC(=O)[C@@H](N)Cc1ccccc1)[C@@H](C)CC)C(=O)N[C@@H](CO)C(=O)N[C@@H](C)C(=O)N[C@H](C(=O)N[C@H](C(=O)N[C@@H](CO)C(=O)N[C@@H](CC(C)C)C(=O)N[C@H](C(=O)N[C@@H](CCCCN)C(=O)N[C@@H](CCCCN)C(N)=O)[C@@H](C)CC)[C@@H](C)O)C(C)C [CM2] (H-FLWKLIPKAISAVTSLIKK-NH2; N-terminus assumed)	4 µg/mL	1.9 µM	16 µg/mL	7.4 µM	16 µg/mL	7.4 µM	8 µg/mL	3.7 µM	4 µg/mL	1.9 µM	4 µg/mL	1.9 µM	8 µg/mL	3.7 µM	4 µg/mL	74.3 ± 9.2%	1.9 µM		
CC[C@H](C)[C@H](NC(=O)[C@H](C)NC(=O)[C@H](CCCCN)NC(=O)[C@@H]1CCCN1C(=O)[C@@H](NC(=O)[C@H](CC(C)C)NC(=O)[C@H](CCCCN)NC(=O)[C@H](Cc1c[nH]c2ccccc12)NC(=O)[C@H](CC(C)C)NC(=O)[C@@H](N)Cc1ccccc1)[C@@H](C)CC)C(=O)N[C@@H](CCCCN)C(=O)N[C@@H](C)C(=O)N[C@H](C(=O)N[C@H](C(=O)N[C@@H](CO)C(=O)N[C@@H](CC(C)C)C(=O)N[C@H](C(=O)N[C@@H](CCCCN)C(=O)N[C@@H](CCCCN)C(N)=O)[C@@H](C)CC)[C@@H](C)O)C(C)C [CM3] (H-FLWKLIPKAIKAVTSLIKK-NH2; N-terminus assumed)	4 µg/mL	1.8 µM	8 µg/mL	3.6 µM	8 µg/mL	3.6 µM	4 µg/mL	1.8 µM	4 µg/mL	1.8 µM	4 µg/mL	1.8 µM	4 µg/mL	1.8 µM	4 µg/mL	89.1 ± 12.1%	1.8 µM	4 to 8 µg/mL	
CC[C@H](C)[C@H](NC(=O)[C@H](C)NC(=O)[C@H](CCCCN)NC(=O)[C@@H]1CCCN1C(=O)[C@@H](NC(=O)[C@H](CC(C)C)NC(=O)[C@H](CCCCN)NC(=O)[C@H](Cc1c[nH]c2ccccc12)NC(=O)[C@H](CC(C)C)NC(=O)[C@@H](N)Cc1ccccc1)[C@@H](C)CC)C(=O)N[C@@H](CCCCN)C(=O)N[C@@H](CCCCN)C(=O)N[C@H](C(=O)N[C@H](C(=O)N[C@@H](CO)C(=O)N[C@@H](CC(C)C)C(=O)N[C@H](C(=O)N[C@@H](CCCCN)C(=O)N[C@@H](CCCCN)C(N)=O)[C@@H](C)CC)[C@@H](C)O)C(C)C [CM4] (H-FLWKLIPKAIKKVTSLIKK-NH2; N-terminus assumed)	4 µg/mL	1.8 µM	32 µg/mL	14.2 µM	16 µg/mL	7.1 µM	16 µg/mL	7.1 µM	4 µg/mL	1.8 µM	16 µg/mL	7.1 µM	8 µg/mL	3.6 µM	8 µg/mL	14.0 ± 4.7%	3.6 µM	4 to 32 µg/mL	decreased dramatically compared with Ctriporin
CC[C@H](C)[C@H](NC(=O)[C@H](C)NC(=O)[C@H](CCCCN)NC(=O)[C@H](CCCCN)NC(=O)[C@@H](NC(=O)[C@H](CC(C)C)NC(=O)[C@H](CCCCN)NC(=O)[C@H](Cc1c[nH]c2ccccc12)NC(=O)[C@H](CC(C)C)NC(=O)[C@@H](N)Cc1ccccc1)[C@@H](C)CC)C(=O)N[C@@H](CCCCN)C(=O)N[C@@H](CCCCN)C(=O)N[C@H](C(=O)N[C@@H](CCCCN)C(=O)N[C@@H](CCCCN)C(=O)N[C@@H](CC(C)C)C(=O)N[C@H](C(=O)N[C@@H](CCCCN)C(=O)N[C@@H](CCCCN)C(N)=O)[C@@H](C)CC)C(C)C [CM7] (H-FLWKLIKKAIKKVKKLIKK-NH2; N-terminus assumed)	8 µg/mL	3.4 µM	32 µg/mL		8 µg/mL	3.4 µM	16 µg/mL		32 µg/mL	13.6 µM	32 µg/mL	13.6 µM	32 µg/mL	13.6 µM	32 µg/mL	57.5 ± 9.8%	13.6 µM	8 to 32 µg/mL	positions closely to those of CM3
